Reference: patent US12202805B2, “Process for preparing (5S)-{[2-(4-carboxyphenyl)ethyl] |2-(2-{|3-chloro-4'-(trifluoromethyl)biphenyl-4-yl]methoxy}phenyl)ethyl]aminol-5,6,7,8-tetrahydroquinoline-2-carboxylic acid and its crystalline forms for use as pharmaceutically active compound” (Bayer Aktiengesellschaft, priority 2021, dated 2025)

What was measured:
[1] = system: thromboxane A2 challenged PAH-minipig; experiment: Haemodynamics in the anesthetized thromboxane challenged minipig, intratracheal dry powder (PAP, BP); assay type: in vivo, Göttingen Minipigs
Description: Healthy Göttingen Minipigs® Ellegaard (Ellegaard, Denmark) of both sexes and having a weight of 2-6 kg were used. The animals were sedated by i.m. administration of about 25 mg/kg ketamine and about 10 mg/kg azaperone. Anaesthesia was initiated by i.v. administration of about 2 mg/kg ketamine and about 0.3 mg/kg midazolam. Maintenance of anaesthesia was by i.v. administration of about 7.5-30 mg/kg/h ketamine and about 1-4 mg/kg/h midazolam (rate of infusion 1-4 ml/kg/h) and about 150 μg/kg/h pancuronium bromide (for example Pancuronium-Actavis). After intubation, the animals were ventilated by the ventilator at a constant respiratory volume (10-12 ml/kg, 35 breaths/min; Avea®, Viasys Healthcare, USA, or Engström Carestation, GE Healthcare, Freiburg, Germany) such that an end-tidal CO2 concentration of about 5% was achieved. Ventilation was performed with room air, enriched with about 40% oxygen (normoxia). For the measurement of the haemodynamic parameters such as pulmonary arterial pressure (PAP), blood pressure (BP) and heart rate (HR), catheters were inserted into the carotid artery to measure the blood pressure, and a Swan-Ganz® catheter was introduced in a flow-directed manner via the jugular vein into the pulmonary artery. The haemodynamic signals were recorded and evaluated by means of pressure transducers (Combitransducer, B. Braun, Melsungen, Germany)/amplifiers and Ponemah® as data acquisition software.
As reference pure Lactose vehicle was applied in the beginning of each experiment.

[2] = Filter experiments for deposited lung dose in the PAH minipig model and prediction of human dose; assay type: in vivo
Description: The anesthetized thromboxane A2 challenged PAH-minipig model (see experimental part E-1) is considered to be the most relevant and sensitive model for the prediction of the human minimal effective and effective doses (MED, ED). To determine effective LDs, experiments were repeated with the difference that absorbing filters were attached at the end of the tubes to determine the deposited lung dose. […] Assuming a minimal effective ND of 3 μg/kg (5% reduction in PAP) the minimal effective deposited LD is considered as 0.15 μg/kg.
The nominal doses of 3, 10, 30 and 100 μg/kg of the minipig model were multiplied by the filter deposition factor of 5% resulting in 0.15, 0.5, 1.5 and 5 μg/kg lung deposited doses in the minipig. These values were multiplied by 60 kg to achieve the lung dose in humans. Thus, the FPD reflecting the PAP reduction for a 60 kg human are calculated to be 9, 30, 90 and 300 μg.
Thus, via a direct up-scaling from minipig, the predictive MED (5% PAP reduction) for a human based on a 60 kg body weight is calculated to be 9 μg LDD, not considering protein binding within the respiratory tract. As a surrogate for unbound concentrations, which are the likely active concentrations in the lung, we considered respective differences in fractions unbound in plasma of minipig and human. […]

[3] = Storage stability of pseudopolymorphic forms (XRPD); assay type: physicochemical; conditions: for Result (form after storage): monohydrate II

O=C(O)c1ccc(CCN(CCc2ccccc2OCc2ccc(-c3ccc(C(F)(F)F)cc3)cc2Cl)[C@H]2CCCc3nc(C(=O)O)ccc32)cc1 [comparative example 11, (5S)-5-{[2-(4-carboxyphenyl)ethyl][2-(2-{[3-chloro-4′-(trifluoromethyl)[biphenyl]-4-yl]methoxy}phenyl)ethyl]amino}-5,6,7,8-tetrahydroquinoline-2-carboxylic acid]
MED ([1]; dry powder i.t., lower doses not applicable): ≤ 7.5 µg/kg | minimal effective lung deposited dose for a human patient of 60 kg body weight ([2]; with or without effect of different protein binding): 9 to 41 µg

O=C(O)c1ccc(CCN(CCc2ccccc2OCc2ccc(-c3ccc(C(F)(F)F)cc3)cc2Cl)[C@H]2CCCc3nc(C(=O)O)ccc32)cc1 [example 2, (5S)—{[2-(4-Carboxyphenyl)ethyl][2-(2-{[3-chloro-4′-(trifluoromethyl)biphenyl-4-yl]methoxy}phenyl)-ethyl]amino}-5,6,7,8-tetrahydroquinoline-2-carboxylic acid as Monohydrate II]
Result (form after storage) ([3]; brown glass closed with paper filter disc, 40° C., 75% relative humidity): monohydrate I | Result (form after storage) ([3]; brown glass snap on closure, 25° C., 60% relative humidity, one, three and six months): monohydrate II | Result (form after storage) ([3]; polyethylene, 25° C., 60% relative humidity): monohydrate I | Result (form after storage) ([3]; polyethylene, 40° C., 75% relative humidity): monohydrate I | systemic blood pressure ([1]; 375 μg/kg i.t., within the last hour of the observation interval): slightly affected | efficacy with regard to PAP reduction as well as systemic BP reduction ([1]; micronized hydrates, 1.5 mg/4 kg (=375 μg/kg) i.t.): comparable efficacy | BP, % changes vs. prevalues ([1]; time 80 min, 375 μg/kg i.t.): 100.0% | BP, % changes vs. prevalues ([1]; time 130 min, 375 μg/kg i.t.): 97.0% | BP, % changes vs. prevalues ([1]; time 140 min, 375 μg/kg i.t.): 97.0% | BP, % changes vs. prevalues ([1]; time 200 min, 375 μg/kg i.t.): 97.0% | ratio of fraction unbound minipig/human ([2]; plasma): 4.55

O=C(O)c1ccc(CCN(CCc2ccccc2OCc2ccc(-c3ccc(C(F)(F)F)cc3)cc2Cl)[C@H]2CCCc3nc(C(=O)O)ccc32)cc1 [example 4, (5S)—{[2-(4-Carboxyphenyl)ethyl][2-(2-{[3-chloro-4′-(trifluoromethyl)biphenyl-4-yl]methoxy}phenyl)-ethyl]amino}-5,6,7,8-tetrahydroquinoline-2-carboxylic acid as Monohydrate I]
storage stability ([3]; under the storage conditions of Table 15): stable
